Results from ChEMBL document CHEMBL1156740, “A bivalent ligand (KMN-21) antagonist for mu/kappa heterodimeric opioid receptors” (Bioorg Med Chem Lett, 2009).
Calls of active or inactive are those of the source.

Tests used:
Type in all cases: functional, cell-based
[1] = target: Mu-type opioid receptor (Homo sapiens) (UniProt P35372); experiment: Antagonistic activity at mu opioid receptor expressed in HEK293 cells co-transfected with chimeric G-protein delta 6-Gqi4-myr assessed as inhibition of DAMGO-induced calcium release at 1 uM
Mu-type opioid receptor (Homo sapiens), sequence (P35372 whole entry): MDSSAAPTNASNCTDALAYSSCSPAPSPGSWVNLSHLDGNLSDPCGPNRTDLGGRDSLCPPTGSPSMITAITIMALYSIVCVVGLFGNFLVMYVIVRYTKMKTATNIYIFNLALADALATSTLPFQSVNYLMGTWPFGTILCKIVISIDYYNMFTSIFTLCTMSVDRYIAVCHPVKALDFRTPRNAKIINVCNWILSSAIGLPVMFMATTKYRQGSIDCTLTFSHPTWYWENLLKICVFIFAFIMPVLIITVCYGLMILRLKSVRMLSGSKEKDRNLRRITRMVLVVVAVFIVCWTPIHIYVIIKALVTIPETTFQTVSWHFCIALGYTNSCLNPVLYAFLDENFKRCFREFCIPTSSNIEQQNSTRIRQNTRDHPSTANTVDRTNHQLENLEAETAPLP

[2] = target: Kappa-type opioid receptor (Homo sapiens) (UniProt P41145); experiment: Antagonistic activity at kappa opioid receptor expressed in HEK293 cells co-transfected with chimeric G-protein delta 6-Gqi4-myr assessed as inhibition of U69593-induced calcium release at 1 uM
Kappa-type opioid receptor (Homo sapiens), sequence (P41145 whole entry): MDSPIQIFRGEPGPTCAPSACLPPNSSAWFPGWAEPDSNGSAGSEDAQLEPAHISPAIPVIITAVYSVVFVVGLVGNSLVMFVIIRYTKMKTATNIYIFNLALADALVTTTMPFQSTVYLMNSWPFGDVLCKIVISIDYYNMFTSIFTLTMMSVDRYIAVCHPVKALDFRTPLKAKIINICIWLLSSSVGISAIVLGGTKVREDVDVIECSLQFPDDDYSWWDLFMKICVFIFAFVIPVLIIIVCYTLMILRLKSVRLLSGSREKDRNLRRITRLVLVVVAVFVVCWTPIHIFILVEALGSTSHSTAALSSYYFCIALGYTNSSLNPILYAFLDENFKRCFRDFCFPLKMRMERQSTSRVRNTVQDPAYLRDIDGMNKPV

[3] = target: T1, Opioid receptors; mu & kappa (Homo sapiens) (UniProt P41145+P35372); experiment: Antagonistic activity at mu/kappa opioid receptor expressed in HEK293 cells co-transfected with chimeric G-protein delta 6-Gqi4-myr assessed as inhibition of U69593-induced calcium release at 1 uM
T1 sequence (P35372 whole entry, looked up): as the sequence (P35372 whole entry) above
T1 sequence (P41145 whole entry, looked up): as the sequence (P41145 whole entry) above

[4] = target: T1, Opioid receptors; mu & kappa (Homo sapiens); experiment: Antagonistic activity at mu/kappa opioid receptor expressed in HEK293 cells co-transfected with chimeric G-protein delta 6-Gqi4-myr assessed as inhibition of DAMGO-induced calcium release at 1 uM

Measured: Activity

N=C(NCCCCNC(=O)CNC(=O)CNC(=O)CCC(=O)NCC(=O)NCC(=O)N[C@H]1C[C@@H]2Oc3c(O)ccc4c3[C@@]23CCN(CC2CC2)[C@H](C4)[C@]3(O)C1)Nc1ccc2[nH]c3c(c2c1)C[C@@]1(O)[C@H]2Cc4ccc(O)c5c4[C@@]1(CCN2CC1CC1)[C@H]3O5
active: [1] | [2] | [3] | [4]

N=C(NCCCNC(=O)CNC(=O)CNC(=O)CCC(=O)NCC(=O)NCC(=O)N[C@H]1C[C@@H]2Oc3c(O)ccc4c3[C@@]23CCN(CC2CC2)[C@H](C4)[C@]3(O)C1)Nc1ccc2[nH]c3c(c2c1)C[C@@]1(O)[C@H]2Cc4ccc(O)c5c4[C@@]1(CCN2CC1CC1)[C@H]3O5
active: [1] | [2] | [3] | [4]

N=C(NCCCCCNC(=O)CNC(=O)CNC(=O)CCC(=O)NCC(=O)NCC(=O)N[C@H]1C[C@@H]2Oc3c(O)ccc4c3[C@@]23CCN(CC2CC2)[C@H](C4)[C@]3(O)C1)Nc1ccc2[nH]c3c(c2c1)C[C@@]1(O)[C@H]2Cc4ccc(O)c5c4[C@@]1(CCN2CC1CC1)[C@H]3O5
active: [1] | [2] | [3] | [4]

N=C(NCCNC(=O)CNC(=O)CNC(=O)CCC(=O)NCC(=O)NCC(=O)N[C@H]1C[C@@H]2Oc3c(O)ccc4c3[C@@]23CCN(CC2CC2)[C@H](C4)[C@]3(O)C1)Nc1ccc2[nH]c3c(c2c1)C[C@@]1(O)[C@H]2Cc4ccc(O)c5c4[C@@]1(CCN2CC1CC1)[C@H]3O5
active: [1] | [2] | [3] | [4]
